According to patent US6716879B2, “Methods for anti-tumor therapy” (Compass Pharmaceuticals, LLC, priority 2000, dated 2004):
Where two headings read alike, the source gives them in different places. Values belong to the compound of their own block, whether it stands above or below them.

How the values were obtained:
[1] = test system: Leiomyosarcoma/pelvic patient tumor cells; assay: Alamar Blue anti-tumor screen, IC50 on patient tumor cells, tumor #4; assay type: cell-based, human
Description: (§1) Excess tissue specimens obtained from patients undergoing therapeutic surgical resections were freshly obtained at the time of surgery and a small portion of the specimen was sent for pathological testing. For diagnosis and grading of tissue samples (ie: prior to processing), hematoxylin and eosin stained tissue sections were examined by a pathologist. If the diagnosis and grading of the tissue concurred with the determination made by the surgical pathologist that provided the tissue, then the tissue was used in the screen. If there was no agreement, then two additional pathologists served as referees. If no consensus was reached, then the tissue was not used.
(§2) The remaining tissue was used to prepare cell suspensions. The tissue was initially treated enzymatically via standard methods until only undigested material remained. The digested cell suspension was filtered through one or more screens of between 40 micron and 100 micron porosity. The resulting cell suspension was further purified via isokinetic density centrifugation.
(§3) Additional normal cells were removed from the cell suspension by negative immunoselection with a combination of monoclonal antibodies linked to magnetic beads (Dynal) that were used according to the manufacturers' instructions. The remaining cells were placed into appropriate medium, frozen down in 1.0 mL aliquots, and stored until use.
After tissue processing, the relative purity of the resulting cell suspension was determined by cytological examination after fixation and Papanicolaou staining. Only those cell preparations greater than 80% tumor cells were used for testing of candidate compounds. If there was any doubt about the percentage of tumor cells in the cell preparation, additional pathologists served as referees to make a determination.
(§4) Cell preparations that passed histological and cytological examination for diagnosis, grading, and cell purity were thawed at 37° C. and resuspended in tissue culture medium designed to maintain the cells during the incubation period. The live and dead cells were counted and the cells were diluted in culture medium to 1.0×10^3 live cells/test well for tumor cells and 3.3×10^3 live cells/test well for normal cells.
The cells were added to microtiter plates and incubated at 37° C. overnight with 10 μM of the candidate compounds that were added at 1/10th the volume of the cell suspension. Alamar Blue (Accumed International, Westlake Ohio) was then added to the cells at 1/10 the volume of the well, and the cells were further incubated at 37° C. for various times. Alamar Blue dye measures cellular re-dox reactions (ie: cellular respiration) whereby a spectral shift occurs upon reduction of the dye. (Excitation 530 nm; emission 590 nm).
The kinetics of cellular re-dox reactions were subsequently measured at various times, for example at 3 hours, 3 days, and 5 days post-dye addition. These measurements, in comparison with control cells (untreated with compound) and media controls (test wells without cells) provide the percent inhibition of cellular mitochondrial respiration as a result of candidate compound treatment, as well as IC50 determinations.
In a blinded fashion, approximately 10,000 compounds were tested at a rate of 1,000-4,000 compounds per run set against various tumor types. The anti-tumor screen utilized was composed of three tiers as follows. In screen 1, patient tumor cells were tested in singles, with candidate compounds at a concentration of 10 μM. […]

patient normal cells = assay: Anti-tumor screen 2 at 10 μM on patient normal cells; assay type: cell-based; conditions: Homo sapiens, screen 2, 10 μM, in duplicate
Description: as §1, with “used. […]” for “used.”
(§5) After tissue processing, the relative purity of the resulting cell suspension was determined by cytological examination after fixation and Papanicolaou staining. […]
as §4, with “cells. […]” for “cells.”
(§6) The kinetics of cellular re-dox reactions were subsequently measured at various times, for example at 3 hours, 3 days, and 5 days post-dye addition. […]

[2] = test system: Ovarian patient tumor cells; assay: Alamar Blue anti-tumor screen, IC50 on patient tumor cells, tumor #7; assay type: cell-based; conditions: Homo sapiens, triplicate
Description: as §1, with “used. […]” for “used.”
as §5
as §4, with “cells. […]” for “cells.”
as §6

[3] = test system: Myxofibrosarcoma/thigh patient tumor cells; assay: Alamar Blue anti-tumor screen, IC50 on patient tumor cells, tumor #3; assay type: cell-based; conditions: Homo sapiens, triplicate
Description: as §1, with “used. […]” for “used.”
as §5
as §4, with “cells. […]” for “cells.”
as §6

[4] = test system: Gastrointestinal stromal tumor (sarcoma) patient tumor cells; assay: Alamar Blue anti-tumor screen, IC50 on patient tumor cells, tumor #5; assay type: cell-based; conditions: Homo sapiens, triplicate
Description: as §1, with “used. […]” for “used.”
as §5
as §4, with “cells. […]” for “cells.”
as §6

[5] = test system: Fibrohistiocytic Sarcoma/lung patient tumor cells; assay: Alamar Blue anti-tumor screen, IC50 on patient tumor cells, tumor #2; assay type: cell-based; conditions: Homo sapiens, triplicate
Description: as §1, with “used. […]” for “used.”
as §5
as §4, with “cells. […]” for “cells.”
as §6

[6] = test system: Leiomyosarcoma/abdominal patient tumor cells; assay: Alamar Blue anti-tumor screen, IC50 on patient tumor cells, tumor #1; assay type: cell-based, human; conditions: triplicate
Description: as §1, with “used. […]” for “used.”
as §5
as §4, with “cells. […]” for “cells.”
as §6

[7] = test system: Gastrointestinal stromal tumor (sarcoma) patient tumor cells; assay: Alamar Blue anti-tumor screen, IC50 on patient tumor cells, tumor #6; assay type: cell-based; conditions: Homo sapiens, triplicate
Description: as §1, with “used. […]” for “used.”
as §5
as §4, with “cells. […]” for “cells.”
as §6

patient tumor cells = assay: Anti-tumor screen 1 and 2 at 10 μM on patient tumor cells; assay type: cell-based, human; conditions: for inhibition at 10 µM: Homo sapiens
Description: as §1, §2, §3, §5
as §4, with “cells. […]” for “cells.”
as §6

IC50 ([1]; Homo sapiens): 118 nM
SMILES: O=C(Nc1ccc(Cl)cc1)c1cc(Br)ccc1NS(=O)(=O)c1ccc(Cl)c([N+](=O)[O-])c1 [Compound 3, (5-bromo-2-{[(4-chloro-3-nitrophenyl)sulfonyl]amino}phenyl)-N-(4-chlorophenyl)carboxamide]

IC50 ([1]; Homo sapiens, Tumor #4 of Table 2, Leiomyosarcoma/pelvic, tested as in Example 3 (Table 3), read-out: IC50): 209 nM
SMILES: O=C(Nc1ccc(Cl)cc1)c1cc2ccccc2cc1NS(=O)(=O)c1ccc(Cl)cc1 [Compound 5, N-(4-chlorophenyl)(3-{[(4-chlorophenyl)sulfonyl]amino}(2-naphthyl))-carboxamide]

IC50 ([1]; Homo sapiens): 44.7 nM
SMILES: O=C(Nc1ccc(Cl)cc1)c1cc(Br)ccc1NS(=O)(=O)c1ccc(Cl)cc1 [Compound 2, 5-bromo-2-{[(4-chlorophenyl)sulfonyl]amino}-N-(4-chlorophenyl)-benzamide]

IC50 [2]: 35 nM
IC50 [3]: 49 nM
IC50 ([1]; Homo sapiens, Tumor #4, Leiomyosarcoma/pelvic, patient tumor cells, triplicate (Table 2), read-out: IC50): 339 nM
IC50 ([1]; Tumor #4, Leiomyosarcoma/pelvic, patient tumor cells, triplicate (Table 2), read-out: IC50): 410 nM
IC50 [4]: 2400 nM
IC50 [5]: 30 nM
IC50 ([6]; Homo sapiens): 170 nM
IC50 [6]: 150 nM
IC50 [7]: 531 nM
SMILES: O=C(Nc1ccc(Cl)cc1)c1cc(Cl)ccc1NS(=O)(=O)c1ccc(Cl)cc1 [Compound 1, 5-chloro-2-{[(4-chlorophenyl)sulfonyl]amino}-N-(4-chlorophenyl)benzamide]
inhibition at 10 µM (patient normal cells): ≤ 20%
inhibition at 10 µM (patient tumor cells; screen 1, 10 μM, patient tumor cells, criterion: at least 80% inhibition and/or two standard deviations from the mean of the plate samples, read-out: inhibition (compared to cell and media controls)): ≥ 80%
inhibition at 10 µM (patient tumor cells; screen 2, 10 μM, in duplicate, patient tumors, read-out: inhibition on tumor cells): ≥ 80%
selectivity against tumor cells (patient tumor cells; three-tier anti-tumor screen, tumor versus normal patient cells, 10 μM): selectivity against tumor cells
